From PubChem BioAssay (NCI)
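Values below derive from 48-hour exposures of cells grown in 96-well plates, with endpoints linearly interpolated between the two concentrations bracketing the appropriate inhibition level. GI50 = concentration required for 50% inhibition of growth. At the TGI there is no net growth.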

Tests used:
Assay in all cases: growth of human tumour cells (NCI), 48 h
UACC-62 melanoma = system: UACC-62 melanoma
T-47D breast = system: T-47D breast
A498 renal = system: A498 renal
CCRF-CEM leukemia = system: CCRF-CEM leukemia
HCT-116 colon = system: HCT-116 colon
CAKI-1 renal = system: CAKI-1 renal
786-0 renal = system: 786-0 renal
SK-MEL-28 melanoma = system: SK-MEL-28 melanoma
OVCAR-8 ovarian = system: OVCAR-8 ovarian
RXF 393 renal = system: RXF 393 renal
NCI-H23 lung = system: NCI-H23 lung
SN12C renal = system: SN12C renal
U251 CNS = system: U251 CNS
SF-539 CNS = system: SF-539 CNS
HCC-2998 colon = system: HCC-2998 colon
HT29 colon = system: HT29 colon
MDA-MB-435 = system: MDA-MB-435
PC-3 prostate = system: PC-3 prostate
OVCAR-4 ovarian = system: OVCAR-4 ovarian
SR leukemia = system: SR leukemia
OVCAR-3 ovarian = system: OVCAR-3 ovarian
K-562 leukemia = system: K-562 leukemia
SF-268 CNS = system: SF-268 CNS
COLO 205 colon = system: COLO 205 colon
LOX IMVI melanoma = system: LOX IMVI melanoma
UO-31 renal = system: UO-31 renal
NCI-H226 lung = system: NCI-H226 lung
SW-620 colon = system: SW-620 colon

Q: Which results are given for `COc1cc(NC(C)CCCN)c2nccc(C)c2c1OC` (stereo unspecified)?
A: GI50 (UACC-62 melanoma): 16.6 µM; TGI (UACC-62 melanoma): 32.1 µM; GI50 (T-47D breast): 4.04 µM; TGI (T-47D breast): 24.1 µM; GI50 (A498 renal): 14.4 µM; TGI (A498 renal): 30 µM; GI50 (CCRF-CEM leukemia): 15.4 µM; TGI (CCRF-CEM leukemia): 48 µM; GI50 (HCT-116 colon): 5 µM; TGI (HCT-116 colon): 18.7 µM; GI50 (CAKI-1 renal): 19 µM; TGI (CAKI-1 renal): 40.8 µM; GI50 (786-0 renal): 20.3 µM; TGI (786-0 renal): 55.7 µM; GI50 (SK-MEL-28 melanoma): 14.6 µM; TGI (SK-MEL-28 melanoma): 29.6 µM; GI50 (OVCAR-8 ovarian): 14.5 µM; TGI (OVCAR-8 ovarian): 42.3 µM; GI50 (RXF 393 renal): 17.1 µM; TGI (RXF 393 renal): 40.3 µM; GI50 (NCI-H23 lung): 4.21 µM; TGI (NCI-H23 lung): 22 µM; GI50 (SN12C renal): 11.4 µM; TGI (SN12C renal): 25.8 µM; GI50 (U251 CNS): 14.1 µM; TGI (U251 CNS): 27.4 µM; GI50 (SF-539 CNS): 10.2 µM; TGI (SF-539 CNS): 22.5 µM; GI50 (HCC-2998 colon): 4.85 µM; TGI (HCC-2998 colon): 17.8 µM; GI50 (HT29 colon): 4.72 µM; TGI (HT29 colon): 20.9 µM; GI50 (MDA-MB-435): 17.1 µM; TGI (MDA-MB-435): 32.7 µM; GI50 (PC-3 prostate): 10.5 µM; TGI (PC-3 prostate): 34 µM; GI50 (OVCAR-4 ovarian): 2.7 µM; TGI (OVCAR-4 ovarian): 10.2 µM; GI50 (SR leukemia): 20.8 µM; TGI (SR leukemia): 60.7 µM; GI50 (OVCAR-3 ovarian): 3.17 µM; TGI (OVCAR-3 ovarian): 10.1 µM; GI50 (K-562 leukemia): 19.2 µM; TGI (K-562 leukemia): 53.9 µM; GI50 (SF-268 CNS): 17.9 µM; TGI (SF-268 CNS): 48.3 µM; GI50 (COLO 205 colon): 3.37 µM; TGI (COLO 205 colon): 11.8 µM; GI50 (LOX IMVI melanoma): 14.7 µM; TGI (LOX IMVI melanoma): 28.7 µM; GI50 (UO-31 renal): 17.6 µM; TGI (UO-31 renal): 34.4 µM; GI50 (NCI-H226 lung): 18.8 µM; TGI (NCI-H226 lung): 43 µM; GI50 (SW-620 colon): 3.54 µM; TGI (SW-620 colon): 15 µM
